From patent US20240342106A1, “NANOPARTICLES AND USES THEREOF FOR TREATMENT OF HUMAN IMMUNODEFICIENCY VIRUS” (UNIVERSITY OF MIAMI, priority 2021, published 2024) come the findings set out here.

The test system of series [1] is microglia cells. The series is described as follows: ROS production assay (DCFDA) in microglia cells. It counts as cell-based, Human. The following applies: 1 μM of free ARVs or NPs with respect to the loaded drug, 24 h. Here is the method:
ROS Production Assay in Microglia Cells: The ROS generation in the microglia cells were determined using DCFDA assay. Microglia cells were plated in the white wall coated 96-well plate with density of 20,000 cells per well and grown for 16 h. The SQV, EFV, DRV, DTG, EVG and their nanoformulations were added to the cells at concentration of 1 μM with respect to the ARTs for 24 h. After 24 h, the media was collected and used to determine IL-1β, an inflammation maker using commercially available kit. The DCFDA solution was made in media at the concentration of 100 μM. 100 μL of this solution was added to each well and cells were incubated for 30 min. […] The obtained values were normalized using BCA assay.

Series [2] has as its system microglia cells. The series is described as follows: Seahorse MitoStress assay. Particulars: 500 μM, 24 h.

On to `CC(C)CN(C[C@@H](O)[C@H](Cc1ccccc1)NC(=O)O[C@H]1CO[C@H]2OCC[C@H]21)S(=O)(=O)c1ccc(N)cc1` [Darunavir], for which the ROS generation entry in series [1] is on record as “increased ROS significantly”.
The same measure, in the same setting: next, `C[C@@H]1CCO[C@H]2Cn3cc(C(=O)NCc4ccc(F)cc4F)c(=O)c(O)c3C(=O)N12` [Dolutegravir]: “increased ROS significantly”; `O=C1Nc2ccc(Cl)cc2[C@@](C#CC2CC2)(C(F)(F)F)O1` [Efavirenz]: “increased ROS significantly”.
Same read-out and setting: next, `COc1cc2c(cc1Cc1cccc(Cl)c1F)c(=O)c(C(=O)O)cn2[C@H](CO)C(C)C` [Elvitegravir]: “increased ROS significantly”.
Take `COC(=O)[C@H]1[C@@H](OC(=O)c2ccccc2)C[C@@H]2CC[C@H]1N2C` [cocaine]: in series [2], the ATP production result is listed as “substantially decreased”, the basal respiration entry is given as “substantially decreased” and the maximal respiration entry is “substantially decreased”.
Consider `CN[C@@H](C)Cc1ccccc1` [meth, methamphetamine], for which, in series [2], the ATP production entry is “substantially decreased”, the basal respiration result is “substantially decreased” and the maximal respiration entry is given as “substantially decreased”.
